Experimental data reported in paper PMC6881293, “Nanomolar-potency ‘co-potentiator’ therapy for cystic fibrosis caused by a defined subset of minimal function CFTR mutants” (Scientific Reports, 2019).

How the values were obtained:
Format in all cases: cell-based
N1303K-CFTR = target: T1, N1303K-CFTR (Homo sapiens, UniProt P13569, N1303K); assay: Short-circuit current in FRT cells expressing N1303K-CFTR
T1 construct: expressed in transfected cells
Procedure: Based on prior studies[10],[11],[20], we hypothesized that distinct binding sites may be required to bind a potentiator and co-potentiator to rescue channel activity of CFTR mutants. We defined the potentiator VX-770 as a Class I compound, and co-potentiator ASP-11 as a Class II compound (Fig. 3A,D). Short-circuit current measurements in N1303K-CFTR-expressing FRT cells confirmed synergy when ASP-11 was added after VX-770 (Fig. 3Bi). […] In each experiment, CFTRinh-172 confirmed that current was from CFTR.
Figure 3 Definition of Class I and II CFTR potentiators. (A) Chemical structures of Class I and II potentiators. (B) Short-circuit current in FRT cells expressing N1303K-CFTR in response to forskolin and indicated potentiators. Concentrations: 20 μM forskolin, 5 μM VX-770, 20 μM ASP-11, 20 μM GLPG1837, 20 μM P2, 20 μM P3, 20 μM P5, 20 μM W1282Xpot-C01, and 10 μM CFTRinh-172. C. Short-circuit current in FRT cells expressing Q1313X-CFTR in response to forskolin and indicated potentiators. Concentrations: as in panel B, and 25 μM apigenin. (D) Summary of relative N1303K-CFTR activation in response to combinations of Class I and Class II potentiators. Mean ± S.E.M., n = 3. TEXT PRINTED IN THE PICTURE: (D) VX-770: N1303K-CFTR: P5: 1% ±1%; N1303K-CFTR: GLPG 1837: 10% ±5%; N1303K-CFTR: ASP-11: 100% ±3%; N1303K-CFTR: apigenin: 100% ±5% | (D) P5: N1303K-CFTR: VX-770: 1% ±1%; N1303K-CFTR: GLPG 1837: 2% ±2%; N1303K-CFTR: ASP-11: 52% ±5%; N1303K-CFTR: apigenin: 56% ±5% | (D) GLPG 1837: N1303K-CFTR: VX-770: 0% ±5%; N1303K-CFTR: P5: 2% ±2%; N1303K-CFTR: ASP-11: 100% ±4%; N1303K-CFTR: apigenin: 98% ±5% | (D) ASP-11: N1303K-CFTR: VX-770: 100% ±3%; N1303K-CFTR: P5: 47% ±4%; N1303K-CFTR: GLPG 1837: 100% ±5%; N1303K-CFTR: apigenin: 7% ±3% | (D) apigenin: N1303K-CFTR: VX-770: 100% ±5%; N1303K-CFTR: P5: 50% ±5%; N1303K-CFTR: GLPG 1837: 100% ±5%; N1303K-CFTR: ASP-11: 5% ±2% DOUBTS OF THE COPYIST ABOUT THIS PICTURE: Panel D is a matrix of pairs of substances (row substance combined with column substance). The picture prints no name for the measure, only % values and a 0%–100% colour scale. / The print in panel D is small, so 3, 5, 6 and 8 are hard to tell apart in these values. / VX-770 / GLPG 1837: ±5% could be ±3% / VX-770 / ASP-11: ±3% could be ±5% / VX-770 / apigenin: ±5% could be ±3% / P5 / ASP-11: 52% ±5%, digits uncertain / P5 / apigenin: 56% could be 58%, and ±5% is uncertain / GLPG 1837 / VX-770: 0% ±5%, error digit uncertain / GLPG 1837 / apigenin: 98% could be 96%, and ±5% is uncertain / ASP-11 / VX-770: ±3% could be ±5% / ASP-11 / GLPG 1837: ±5% could be ±3% / ASP-11 / apigenin: 7% ±3%, error digit uncertain / apigenin / VX-770: ±5% could be ±3% / apigenin / P5: 50% ±5%, digits uncertain / apigenin / GLPG 1837: ±5% could be ±3% / apigenin / ASP-11: 5% ±2%, the 5 is uncertain
Figures 5C,D show data in N1303K- and Q1313X-expressing FRT cells.
(§1) Short-circuit current was measured on cells cultured on Snapwell clear permeable supports (Corning) as described[10],[11]. Hemichambers were connected to a DVC-1000 voltage clamp (World Precision Instruments Inc., Sarasota, FL) via Ag/AgCl electrodes and 3 M KCl agar bridges for recording of the short-circuit current. For human airway epithelial cells, symmetrical HCO3^−-buffered solutions (in mM: 120 NaCl, 5 KCl, 1 MgCl2, 1 CaCl2, 5 Hepes, 25 NaHCO3, 10 glucose, pH 7.4) for basolateral and apical side were used. For FRT cells, the basolateral membrane was permeabilized with 250 μg/ml amphotericin B, and experiments were done with a chloride gradient using a HCO3^−-buffered solutions (Basolateral (mM): 120 NaCl, 5 KCl, 1 MgCl2, 1 CaCl2, 5 Hepes, 25 NaHCO3, 10 glucose, pH 7.4; apical (mM): 60 NaCl, 60 mM sodium gluconate, 5 KCl, 1 MgCl2, 1 CaCl2, 5 Hepes, 25 NaHCO3, 10 glucose, pH 7.4). All cells were equilibrated with 95% O2, 5% CO2 and maintained at 37 °C during experiments.

R1162X-CFTR = target: T2, R1162X-CFTR (Homo sapiens, UniProt P13569); assay: Short-circuit current in FRT cells expressing R1162X-CFTR; conditions: 5 µM VX-770, 20 µM ASP-11, 3 µM VX-809 overnight
T2 construct: expressed in transfected cells; host or cells: Fischer rat thyroid (FRT) cells; gift from Drs; Andras Rab and Jeong Hong (Emory University)
T2 sequence (P13569 1-1161 limits assumed): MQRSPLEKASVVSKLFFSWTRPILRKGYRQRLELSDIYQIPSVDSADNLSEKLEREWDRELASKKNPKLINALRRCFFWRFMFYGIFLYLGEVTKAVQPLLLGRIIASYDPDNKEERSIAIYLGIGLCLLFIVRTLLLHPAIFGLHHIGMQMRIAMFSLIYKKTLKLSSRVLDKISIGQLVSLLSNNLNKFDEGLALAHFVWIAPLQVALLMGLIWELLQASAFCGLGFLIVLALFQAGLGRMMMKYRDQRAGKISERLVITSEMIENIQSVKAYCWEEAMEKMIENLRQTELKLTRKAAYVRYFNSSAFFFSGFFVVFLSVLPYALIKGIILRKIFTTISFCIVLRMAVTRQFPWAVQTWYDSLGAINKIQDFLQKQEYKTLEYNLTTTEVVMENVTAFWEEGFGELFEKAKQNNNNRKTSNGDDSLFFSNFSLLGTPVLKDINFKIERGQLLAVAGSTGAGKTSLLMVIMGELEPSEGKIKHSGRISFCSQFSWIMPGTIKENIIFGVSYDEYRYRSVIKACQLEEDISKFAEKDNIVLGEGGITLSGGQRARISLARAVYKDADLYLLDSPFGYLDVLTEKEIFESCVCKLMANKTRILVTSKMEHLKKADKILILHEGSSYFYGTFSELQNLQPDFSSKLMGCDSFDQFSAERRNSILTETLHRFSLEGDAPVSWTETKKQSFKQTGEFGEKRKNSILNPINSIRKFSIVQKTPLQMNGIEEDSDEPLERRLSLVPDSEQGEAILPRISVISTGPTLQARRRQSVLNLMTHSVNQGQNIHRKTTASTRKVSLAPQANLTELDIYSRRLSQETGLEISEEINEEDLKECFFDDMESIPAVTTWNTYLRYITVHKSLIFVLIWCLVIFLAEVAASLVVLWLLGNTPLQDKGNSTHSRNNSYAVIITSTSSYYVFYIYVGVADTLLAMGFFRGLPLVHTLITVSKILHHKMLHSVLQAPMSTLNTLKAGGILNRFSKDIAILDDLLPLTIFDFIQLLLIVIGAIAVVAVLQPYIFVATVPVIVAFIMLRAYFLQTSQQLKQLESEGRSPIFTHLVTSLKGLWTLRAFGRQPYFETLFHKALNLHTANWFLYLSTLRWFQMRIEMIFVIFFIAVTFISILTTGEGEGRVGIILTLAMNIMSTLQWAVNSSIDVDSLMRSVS
Procedure: As shown in Fig. 1C and summarized in Fig. 2, ASP-11 acted in synergy with VX-770 to increase chloride current in FRT cells expressing the NBD2 mutations I1234del- and Q1313X-CFTR by ~3–9-fold compared to VX-770. I1234del- and Q1313X-CFTR-expressing cells were also treated with VX-809 for 24 hours (to consider the effect of available CFTR therapeutics) with 2–3-fold greater currents observed.
Figure 2 Summary of short-circuit current responses to modulators for CFTR mutants in transfected FRT cells. Responses to indicated CFTR mutants with 20 μM forskolin, 5 µM VX-770, 20 µM ASP-11 (with or without 3 µM VX-809 overnight). For reference, data shown for cells expressing wild type CFTR. Mean ± S.E.M., n = 3.
as §1

Q1313X-CFTR = target: T3, Q1313X-CFTR (Homo sapiens, UniProt P13569); assay: Short-circuit current in FRT cells expressing Q1313X-CFTR
T3 construct: expressed in transfected cells
T3 sequence (P13569 1-1312 limits assumed): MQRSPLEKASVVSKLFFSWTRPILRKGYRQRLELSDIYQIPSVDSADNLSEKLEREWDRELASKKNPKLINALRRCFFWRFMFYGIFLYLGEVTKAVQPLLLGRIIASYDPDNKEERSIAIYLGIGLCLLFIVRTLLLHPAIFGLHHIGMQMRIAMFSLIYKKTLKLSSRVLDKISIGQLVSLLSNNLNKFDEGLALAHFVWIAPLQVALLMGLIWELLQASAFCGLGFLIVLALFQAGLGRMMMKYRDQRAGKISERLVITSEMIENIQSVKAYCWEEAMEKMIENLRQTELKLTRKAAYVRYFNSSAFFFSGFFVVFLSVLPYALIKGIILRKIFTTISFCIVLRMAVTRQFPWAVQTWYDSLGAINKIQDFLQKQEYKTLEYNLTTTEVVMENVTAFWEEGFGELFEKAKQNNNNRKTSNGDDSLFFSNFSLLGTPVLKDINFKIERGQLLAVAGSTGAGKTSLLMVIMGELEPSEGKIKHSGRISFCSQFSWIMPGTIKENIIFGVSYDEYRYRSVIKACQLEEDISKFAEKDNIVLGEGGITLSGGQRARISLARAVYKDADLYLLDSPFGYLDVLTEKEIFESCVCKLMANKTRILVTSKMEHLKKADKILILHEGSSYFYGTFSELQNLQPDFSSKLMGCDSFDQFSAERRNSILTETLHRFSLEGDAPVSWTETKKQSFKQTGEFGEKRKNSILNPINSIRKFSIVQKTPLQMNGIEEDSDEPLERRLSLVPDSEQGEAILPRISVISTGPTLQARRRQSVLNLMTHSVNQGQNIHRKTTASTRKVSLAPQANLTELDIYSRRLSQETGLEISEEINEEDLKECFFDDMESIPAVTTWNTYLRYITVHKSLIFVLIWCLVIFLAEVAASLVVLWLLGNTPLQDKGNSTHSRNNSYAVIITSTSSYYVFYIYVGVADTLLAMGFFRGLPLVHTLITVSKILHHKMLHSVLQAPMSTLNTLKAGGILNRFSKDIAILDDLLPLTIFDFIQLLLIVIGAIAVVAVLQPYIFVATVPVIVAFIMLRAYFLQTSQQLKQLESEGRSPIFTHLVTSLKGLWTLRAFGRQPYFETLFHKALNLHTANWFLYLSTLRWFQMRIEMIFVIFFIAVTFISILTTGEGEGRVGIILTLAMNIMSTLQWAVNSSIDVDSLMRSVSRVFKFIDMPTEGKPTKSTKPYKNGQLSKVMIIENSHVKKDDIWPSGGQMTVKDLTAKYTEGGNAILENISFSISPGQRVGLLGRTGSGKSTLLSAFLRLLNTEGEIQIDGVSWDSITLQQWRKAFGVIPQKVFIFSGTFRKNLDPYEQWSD

T1 sequence (P13569 whole entry N1303K): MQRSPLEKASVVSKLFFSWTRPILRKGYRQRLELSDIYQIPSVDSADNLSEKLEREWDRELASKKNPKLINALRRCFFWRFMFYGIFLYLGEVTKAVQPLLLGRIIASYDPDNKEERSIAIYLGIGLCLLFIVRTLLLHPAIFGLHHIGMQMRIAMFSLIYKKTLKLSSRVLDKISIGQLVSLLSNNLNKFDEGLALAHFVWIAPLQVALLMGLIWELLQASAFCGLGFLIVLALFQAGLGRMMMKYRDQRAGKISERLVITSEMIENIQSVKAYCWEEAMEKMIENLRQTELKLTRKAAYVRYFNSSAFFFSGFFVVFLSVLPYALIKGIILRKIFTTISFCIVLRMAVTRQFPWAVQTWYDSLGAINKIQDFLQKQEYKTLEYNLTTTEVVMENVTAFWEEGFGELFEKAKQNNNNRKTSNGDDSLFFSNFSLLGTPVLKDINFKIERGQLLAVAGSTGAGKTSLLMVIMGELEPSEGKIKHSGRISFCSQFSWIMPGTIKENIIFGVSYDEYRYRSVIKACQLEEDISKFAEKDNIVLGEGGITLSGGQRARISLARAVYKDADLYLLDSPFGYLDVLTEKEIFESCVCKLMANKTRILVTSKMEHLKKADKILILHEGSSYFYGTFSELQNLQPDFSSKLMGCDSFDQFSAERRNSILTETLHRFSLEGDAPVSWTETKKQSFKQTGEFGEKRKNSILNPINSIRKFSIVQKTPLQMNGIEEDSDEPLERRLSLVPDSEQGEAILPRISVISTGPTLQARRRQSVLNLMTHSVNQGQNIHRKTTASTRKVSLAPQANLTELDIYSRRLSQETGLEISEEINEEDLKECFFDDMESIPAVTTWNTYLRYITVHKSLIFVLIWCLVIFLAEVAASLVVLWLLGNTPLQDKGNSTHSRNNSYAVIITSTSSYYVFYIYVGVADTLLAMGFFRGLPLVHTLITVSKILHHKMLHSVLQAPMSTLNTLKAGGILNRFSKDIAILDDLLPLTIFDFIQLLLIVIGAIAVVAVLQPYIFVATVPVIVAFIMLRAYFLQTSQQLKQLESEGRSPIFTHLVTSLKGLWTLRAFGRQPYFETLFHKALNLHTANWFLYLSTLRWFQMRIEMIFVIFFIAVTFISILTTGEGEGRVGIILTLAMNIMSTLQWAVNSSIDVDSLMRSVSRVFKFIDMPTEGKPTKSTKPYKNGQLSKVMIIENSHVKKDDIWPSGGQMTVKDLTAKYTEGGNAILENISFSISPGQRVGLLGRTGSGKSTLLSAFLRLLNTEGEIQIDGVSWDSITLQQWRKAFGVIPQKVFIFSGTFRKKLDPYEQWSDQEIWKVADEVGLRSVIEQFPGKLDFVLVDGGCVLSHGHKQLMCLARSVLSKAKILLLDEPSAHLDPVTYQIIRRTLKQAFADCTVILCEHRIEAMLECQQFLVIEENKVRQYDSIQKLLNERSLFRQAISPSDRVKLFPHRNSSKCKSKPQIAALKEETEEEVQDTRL

short-circuit current response when added after GLPG1837 (N1303K-CFTR; N1303K-CFTR FRT cells, 20 μM forskolin, 20 μM GLPG1837) | short-circuit current response to modulator (R1162X-CFTR) | short-circuit current response when added after GLPG1837 (Q1313X-CFTR; Q1313X-CFTR FRT cells, 20 μM forskolin, 20 μM GLPG1837) | activation by two Class II potentiators added together (N1303K-CFTR; N1303K-CFTR FRT cells, 20 μM W1282Xpot-C01 and 20 μM ASP-11, no Class I potentiator) | short-circuit current response when added after VX-770 (N1303K-CFTR; N1303K-CFTR FRT cells, 20 μM forskolin, 5 μM VX-770, then 20 μM compound) | increase in chloride current with ASP-11 plus VX-770 compared to VX-770 alone (Q1313X-CFTR; Q1313X-CFTR FRT cells, 20 µM forskolin, 5 µM VX-770, 20 µM ASP-11, range stated jointly for I1234del- and Q1313X-CFTR) | Compound | EC50 (N1303K-CFTR; FRT cells expressing N1303K-CFTR, after 20 µM forskolin and 5 µM VX-770) [µM] | EC50 (Q1313X-CFTR; FRT cells expressing Q1313X-CFTR, after 20 µM forskolin and 5 µM VX-770) [µM]
mildly reduced current | did not respond | reduced current | – | – | – | CC(C)(C)c1cc(C(C)(C)C)c(NC(=O)c2c[nH]c3ccccc3c2=O)cc1O [VX-770, ivacaftor] | – | –
– | did not respond | – | little activation | synergy | 3–9 fold | CCCCn1cc(S(=O)(=O)Nc2ccc(CC)cc2)c2cccnc21 [ASP-11] | – | –
– | – | – | – | – | – | COc1ccc2[nH]c3c(c2c1)CCNC31CCN(Cc2ccc(F)cc2F)CC1 [Compound A061] | 2.9 | 5
